The record followed here is patent US20260125356A1, “TREATMENT OF LEISHMANIASIS” (THE UNIVERSITY OF DURHAM, priority 2022, published 2026).

Data set [1] deals with L. major promastigotes. Nature of the data set: L. major promastigote dose response assay (alamarBlue/resazurin). Type of data set: cell-based. The note with it: 44 hrs + 4 hrs alamarBlue/resazurin, 26° C. As for the experimental part: (§1) Using a standard alamarBlue™ assay, activity and selectivity were assessed using L. major promastigotes and HepG2 cells, respectively.
All parasite and human cell cultures were grown and manipulated following biosafety level 2 instructions under sterile conditions. L. major FV1, L. amazonensis (MHOM/Br/75/JOSEFA), L. donovani BOB (derived from MHOM/SD/62/1S-CL2D), T. brucei (90-13, 427 strain) and T. cruzi (Dm28c) were used throughout.
All steps were carried out under sterile conditions. Frozen stocks of the relevant Leishmania promastigote species were thawed rapidly and added to Schneider's media. Promastigotes were grown at 26° C. in Nunc EasYFlask 25 cm^2 Nunclon Delta Surface (ThermoScientific) and frozen stocks were prepared on low passage cultures (p2-4) by pelleting the cells by centrifugation and resuspending in Schneider's media with 10% DMSO. The cultures were aliquoted into cryovials (Starlab) and cooled slowly to −150° C. for long term storage.
All steps were carried out under sterile conditions. […] Cycloheximide or amphotericin B were used as positive controls and 2% DMSO was used as a negative control. alamarBlue® (ThermoFisher scientific) or resazurin solution was added to each well and incubated for a further 4 hrs at 26° C. Cell-viability was determined using a BioTek™ FLx800 microplate reader with Gen5® 1.08 data analysis software (BioTek) by monitoring fluorescence emission (λex 560/λem 590 nm). Dose response curves were fitted using sigmoidal regression analysis (GraphPad Prism 8 software) and used to calculate EC50 values.
Background: The colour change of resazurin is a common sign of viable cells or microbes.

Data set [2] has as its system L. amazonensis promastigotes. Nature of the data set: L. amazonensis promastigote dose response assay (alamarBlue/resazurin). Type of data set: cell-based. The conditions noted are these: 44 hrs + 4 hrs alamarBlue/resazurin, 26° C., read-out: EC50 (L. amaz)/μM.
In data set [3] the test system is L. donovani promastigotes. Description: L. donovani promastigote dose response assay (resazurin). Type of data set: cell-based. The note with it: promastigotes, 72 hrs at 26° C., resazurin, read-out: EC50 (L. don)/μM.
The nature of data set [4]: Kinetic solubility. The note with it: for solubility at 2 h: kinetic from dmso stock. From the text:
All chemicals and solvents were sourced from commercial suppliers. Buffers were made up using purified water from a MilliQ® water purification system. Biorelevant buffers (FESSIF, FASSIF and FASSGF) were purchased from Biorelevant and made up according to manufacturer's instructions. 15% FBS (heat inactivated, South American origin, ThermoFisher scientific) in PBS (Fisher Scientific) was filter sterilised (0.22 μm Fisherbrand™ Sterile PES Syringe Filter, Fisher Scientific) before use. Sodium taurocholate was purchased from Merck.
λmax was determined for each compound from the UV-Vis absorption spectrum of a 200 LIM compound solution in buffer of interest using a Varian Cary® 100 UV-Vis Spectrophotometer. A calibration curve of λmax VS concentration was obtained by serial dilution of compound from 200 μM in the buffer of interest, correcting for background buffer absorption. For each sample, a DMSO solution of compound was incubated in buffer of interest (<5% DMSO) for 2 hrs at RT. The solution was filtered (0.22 μm Fisherbrand™ Sterile PES Syringe Filter, Fisher Scientific) or centrifuged (14,500 rpm, 10 min) to remove undissolved debris and the supernatant was removed and diluted as required. The corrected UV absorption of the supernatant at Amax Was measured using a Varian Cary® 100 UV-Vis Spectrophotometer and compared to the calibration curve to determine compound solubility.

Data set [5] has as its system HepG2 cells. Nature of the data set: HepG2 cytotoxicity dose response assay. The note with it: read-out: CC50 (HepG2)/μM, 44 hrs + 4 hrs alamarBlue/resazurin. As for the experimental part: as §1
All steps were carried out under sterile conditions. HepG2 cells were thawed rapidly into DMEM. Cells were grown at 37° C., 5% CO2 for >5 days in T-75 CytoOne® Flask, TC-Treated, Vented flasks (Starlab) in a Sanyo MCO-18M incubator. […] The trypsin was deactivated by addition of DMEM. The cells were homogenised and 5 mL of cell culture was added to 20 mL fresh DMEM. Cells were split 1:4 every 3 days. Frozen stocks were prepared in the same way as the passage, but resuspended into DMEM with 10% DMSO, aliquoted into cryovials (Starlab) and cooled slowly to −150° C. for long term storage.
All steps were carried out under sterile conditions. 80-100% confluent HepG2 were plated into Corning™ Costar™ 96-Well Flat-Bottom Microplates (Fisher Scientific) by adding 200 μL of a homogenous dispersion of cells at a concentration of 0.6×10^5 cells mL^−1 before incubation at 37° C., 5% CO2 overnight. […] The plates were incubated at 37° C., 5% CO2 for 44 hrs in a Sanyo MCO-18M incubator. alamarBlue® (ThermoFisher scientific) or resazurin solution (10 μL) was added to each well and incubated for a further 4 hrs at 37° C., 5% CO2. Cell-viability was determined using a BioTek™ FLx800 microplate reader with Gen5® 1.08 data analysis software (BioTek) by monitoring fluorescence emission (Nex 560/hem 590 nm). Dose response curves were fitted using sigmoidal regression analysis (GraphPad Prism 8 software) and used to calculate EC50 values.

Details of data set [6]: species or system swiss albino mice. The conditions noted are these: mouse, in vivo. As for the experimental part:
DMPK studies were performed by GVK BIO Sciences Pvt Ltd Hyderabad, India, in collaboration with LifeArc. Three swiss albino mice per experiment were inoculated (IP or oral) with compound at 10 mg kg^−1 in 10% DMSO (2 mg mL^−1) on day 1. A small blood sample (50 μL) was taken after 15 minutes, 30 minutes, 1 hr, 2 hr, 4 hr, 6 hr, 8 hr and 24 hr. Proteins were precipitated in acetonitrile and the supernatant was diluted in 1:1 methanol:water and subject to LCMS analysis. The concentration of compound in the blood was determined by comparing the peak area to a calibration curve.

Where [7] appears, read: kinetic solubility in FESSIF, 2 hrs at RT.
Setting [8] is: kinetic solubility in PBS, 2 hrs at RT.

In brackets after ≈: the same amount, converted by molar mass. Like-named read-outs stand apart in the source and are kept apart here.

`CNC(=O)C1CCCC1NC(=O)c1ccc([N+](=O)[O-])s1` (racemic) [Compound 25, N—[±2′-(methylcarbamoyl)cyclopentyl]-5′-nitrothiophene-2-carboxamide]: the values for the EC50 in data set [1], in data set [2] and in data set [3] were 20 µM, 8 µM and 3.4 µM, respectively.
As for `CNC(=O)c1ccsc1NC(=O)c1ccc([N+](=O)[O-])o1` [Compound 17, N-[3-(methylcarbamoyl)thiophen-2-yl]-5′-nitrofuran-2′-carboxamide], the EC50 in data set [1] (Leishmania major, 48 h) came to 0.37 µM; in data set [2] (Leishmania amazonensis, 48 h), 0.33 µM; in data set [3] (Leishmania donovani), 0.2 µM.
As to `NC(=O)c1ccccc1NC(=O)c1ccc([N+](=O)[O-])s1` [Compound 27, N-(2-carbamoylphenyl)-5′-nitrothiophene-2′-carboxamide], the EC50 in data set [1] stood at 0.47 µM. Further, the EC50 in data set [2] came out at 0.079 µM. Further, in data set [4], the “Solubility (FESSIF)/μM” value is 90 µM (≈ 26.2 µg/mL) and the “Solubility (PBS)/μM” value is <2.5 µM.
In the case of `CNC(=O)c1ccccc1NC(=O)c1ccc([N+](=O)[O-])s1` [Compound 28, N-[2-(methylcarbamoyl)phenyl]-5′-nitrothiophene-2′-carboxamide], the figures for the EC50 in data set [1], in data set [2] and in data set [3] were 0.65 µM, 0.052 µM and 0.012 µM, respectively. For the same compound, the CC50 in data set [5] was determined as 5 µM. Also, the “Solubility (FESSIF)/μM” value in data set [4] (setting [7]) amounted to 143 µM (≈ 43.7 µg/mL). In data set [4] (setting [8]), the “Solubility (PBS)/μM” value turned out to be 8.5 µM (≈ 2.6 µg/mL).
On to `O=C(Nc1ccccc1)c1ccc([N+](=O)[O-])s1` [Compound 33, 5′-nitro-N-phenylthiophene-2′-carboxamide], for which the figures for the EC50 in data set [1], in data set [2] and in data set [3] were 4.06 µM, 3.6 µM and 0.93 µM, respectively. In data set [4] (setting [8]), the “Solubility (PBS)/μM” value amounted to 15 µM (≈ 3.72 µg/mL).
In the case of `CNC(=O)c1ccc(OC)cc1NC(=O)c1ccc([N+](=O)[O-])s1` [Compound 43, N-[5-methoxy-2-(methylcarbamoyl)phenyl]-5′-nitrothiophene-2′-carboxamide], the EC50 in data set [1] came to 0.33 µM; in data set [2], 0.021 µM; in data set [3], 0.006 µM. Moreover, the CC50 in data set [5] is > 100 µM. Also, the “Solubility (FESSIF)/μM” value in data set [4] (setting [7]) stood at 38 µM (≈ 12.7 µg/mL). For the same compound, the “Solubility (PBS)/μM” value in data set [4] (setting [8]) is <7.4 µM.
As for `CNC(=O)c1ccc(C)cc1NC(=O)c1ccc([N+](=O)[O-])s1` [Compound 44, N-[5-methyl-2-(methylcarbamoyl)phenyl]-5′-nitrothiophene-2′-carboxamide], the EC50 in data set [1] came to 0.34 µM; in data set [2] it was 0.027 µM; in data set [3], 0.005 µM. For the same compound, in data set [5], the CC50 came to 31 µM. Further, the “Solubility (FESSIF)/μM” value in data set [4] (setting [7]) amounted to 65 µM (≈ 20.8 µg/mL). Besides, in data set [4] (setting [8]), the “Solubility (PBS)/μM” value was <7.4 µM.
With `CNC(=O)c1ccc(C(F)(F)F)cc1NC(=O)c1ccc([N+](=O)[O-])s1` [Compound 45, N-[2-(methylcarbamoyl)-5-(trifluoromethyl)phenyl]-5′-nitrothiophene-2′-carboxamide], the values for the EC50 in data set [1] and in data set [2] were 1.84 µM and 0.24 µM, respectively. Further, the CC50 in data set [5] stood at 13 µM. Further, the “Solubility (FESSIF)/μM” value in data set [4] (setting [7]) came out at 250 µM (≈ 93.3 µg/mL). Besides, in data set [4] (setting [8]), the “Solubility (PBS)/μM” value was 6.5 µM (≈ 2.43 µg/mL).
Turning to `CNC(=O)c1ccc(Br)cc1NC(=O)c1ccc([N+](=O)[O-])s1` [Compound 46, N-[5-bromo2-(methylcarbamoyl)phenyl]-5′-nitrothiophene-2′-carboxamide], the EC50 in data set [1] came out at 0.57 µM; in data set [2], 0.048 µM; in data set [3], 0.12 µM. Also, the CC50 in data set [5] was determined as 7.2 µM. Also, the “Solubility (FESSIF)/μM” value in data set [4] (setting [7]) was 210 µM (≈ 80.7 µg/mL). In addition, the “Solubility (PBS)/μM” value in data set [4] (setting [8]) is <2.5 µM.
On to `NC(=O)c1ccccc1CNC(=O)c1ccc([N+](=O)[O-])s1` [Compound 47, N-(2-carbamoylbenzyl)-5′-nitrothiophene-2′-carboxamide], for which the EC50 in data set [1] (Leishmania major, 48 h) is 21 ± 3 µM. In addition, in data set [4] (PBS, aqueous buffer), the solubility at 2 h was determined as 179 ± 8 µM (≈ 54.7 µg/mL).
Take `CNC(=O)c1ccsc1N(C)C(=O)c1ccc([N+](=O)[O-])s1` [Compound 48, N-methyl-2-(N-methyl-5′-nitrothiophene-2′-amido)thiophene-3-carboxamide]: in data set [1] (Leishmania major, 48 h), the EC50 turned out to be 9.6 ± 0.7 µM. In data set [4] (PBS, aqueous buffer), this compound had a solubility at 2 h of 190 ± 20 µM (≈ 61.8 µg/mL).
As to `O=C(c1ccc([N+](=O)[O-])s1)N1CCCc2ccccc21` [Compound 49, 1-(5′-nitrothiophene-2′-carbonyl)-1,2,3,4-tetrahydroquinoline], the EC50 in data set [1] (Leishmania major, 48 h) turned out to be 11.1 ± 0.3 µM. The compound further showed a solubility at 2 h in data set [4] (PBS, aqueous buffer) of 151 ± 3 µM (≈ 43.5 µg/mL).
As to `CNC(=O)c1ccsc1/N=C/c1ccc([N+](=O)[O-])s1` [Compound 50, N-methyl-2-[(E)-[(5′-nitrothiophen-2′-yl)methylidene]amino]thiophene-3-carboxamide], in data set [1] (Leishmania major, 48 h), the EC50 is 0.86 ± 0.07 µM. Further, in data set [4] (PBS, aqueous buffer), the concentration in solution (solubility at 2 h) came to 101 ± 6 µM (≈ 29.8 µg/mL).
On to `CNC(=O)c1ccc(OCCOCCOC)cc1NC(=O)c1ccc([N+](=O)[O-])s1` [Compound 51, N-{5-[2″-(2″-methoxyethoxy)ethoxy]-2-(methylcarbamoyl)phenyl}-5′-nitrothiophene-2′-carboxamide], for which the EC50 in data set [1] (Leishmania major, 48 h) was found to be 0.32 µM; in data set [2] (Leishmania amazonensis, 48 h) it was 0.22 µM; in data set [3] (Leishmania donovani) it was 0.19 µM. Moreover, the solubility at 2 h in data set [4] (FASSGF, fassgf or other biorelevant) is 11 µM (≈ 4.66 µg/mL); in data set [4] (FASSIF), < 7.4 µM; in data set [4] (FESSIF) it was 7.26 µM (≈ 3.07 µg/mL); in data set [4] (PBS, aqueous buffer) it was 2.27 µM (≈ 0.961 µg/mL).
With `CNC(=O)c1ccc(C(C)(C)C)cc1NC(=O)c1ccc([N+](=O)[O-])s1` [Compound 55, N-[5-tert-butyl-2-(methylcarbamoyl)phenyl]-5′-nitrothiophene-2′-carboxamide], the EC50 in data set [1] (Leishmania major, 48 h) is 1.35 µM; in data set [2] (Leishmania amazonensis, 48 h), 2.5 µM; in data set [3] (Leishmania donovani), 1.3 µM. The solubility at 2 h in data set [4] (FESSIF) is 260 µM (≈ 94 µg/mL); in data set [4] (PBS, aqueous buffer), < 2.5 µM.
As for “Ethyl 2-(5′-nitrothiophene-2′-amido)thiophene-3-carboxylate [Compound 4]”, the values for the EC50 in data set [1] and in data set [2] were 0.93 µM and 1.85 µM, respectively. In data set [6], the pharmacokinetic profile entry was “poor pharmacokinetic profiles”.
Consider “N-(3-cyanothiophen-2-yl)-5′-nitrothiophene-2′-carboxamide [Compound 5]”, for which the EC50 came to 1.1 µM in data set [1], 2.1 µM in data set [2] and 1.12 µM in data set [3].

In general, solubility refers to the dissolved amount per volume that the medium holds.
